In general, GI50 refers to the concentration at which growth is held to half of that of the control.

8 molecules from ChEMBL document CHEMBL1201862, “PubChem BioAssay data set” (2004) can be followed below.

Among the test systems are SF-295; SK-MEL-5; LOX IMVI; NCI-H226; MOLT-4; SF-539; KM12; SW-620; HCT-15; RPMI-8226; SN12C; UACC-257; OVCAR-8; IGROV-1; ACHN; U-251; CAKI-1; NCI-H522; HCT-116; SNB-19.
Common to all, as to assay: DTP human tumour cell line panel, 48 h

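Protocol summary: plate cells (96-well), add compound at 5 concentrations, incubate 48 h, interpolate endpoints linearly. The concentration for 50% growth inhibition is given as GI50.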 The source made the active and inactive calls. Cut-off read from the data, not from the text of the source: active = GI50 up to about 1.1 µM and inactive = higher. Starred links: 1 amine or outer side, 2 acyl side, 3 side chain; linkers in the order of their positions; H or OH if unused. Non-standard residues stand in square brackets, D forms with d. Residues, ends and D or L forms follow the SMILES beside them. X4 = C[C@H](N[*:1])C(=O)C(C)(C)C(=O)[*:2]; Hmpa(2S,3S) = CC[C@H](C)[C@H](O)C(=O)O; NMeY = CN[C@@H](Cc1ccc(O)cc1)C(=O)O; NMeL = CN[C@@H](CC(C)C)C(=O)O; NMeV = CN[C@H](C(=O)O)C(C)C; βAla = NCCC(=O)O

For the molecule `O=C1CCC2(c3ccccc3)Nc3cc(Cl)ccc3N12` (stereo not given), the GI50 in the assay with SF-295 was 27.4 µM (inactive); in the assay with SK-MEL-5, 16.9 µM (inactive); with LOX IMVI it was 33 µM (inactive); in the assay on NCI-H226 it was 19.2 µM (inactive); in the assay with MOLT-4, 21.6 µM (inactive); in the assay with SF-539, 41.3 µM (inactive). Besides, the GI50 is 27.6 µM (inactive) with KM12; 41.5 µM (inactive) in the assay with SW-620; 35.2 µM in the assay on HCT-15; 22 µM (inactive) in the assay with RPMI-8226; 35.1 µM (inactive) in the assay on SN12C; 24 µM (inactive) in the assay on UACC-257. The GI50 with OVCAR-8 is 38.6 µM (inactive); in the assay with IGROV-1, 41.2 µM (inactive); in the assay on ACHN, 26.9 µM (inactive); in the assay on U-251, 48 µM (inactive); with CAKI-1 it was 21 µM (inactive); with NCI-H522, 26.9 µM (inactive).

As to `COc1ccc(-n2c(=O)c3nc(S)[nH]c3n(-c3ccc(OC)cc3)c2=S)cc1`, the GI50 with SF-295, in the assay on SK-MEL-5, in the assay with LOX IMVI, with NCI-H226, in the assay with MOLT-4 and in the assay on SF-539 was > 100 µM (inactive) each time. The GI50 is > 100 µM (inactive) with KM12; > 100 µM (inactive) in the assay with SW-620; more than 100 µM in the assay on HCT-15; > 100 µM (inactive) in the assay with RPMI-8226; > 100 µM (inactive) with HCT-116; > 100 µM (inactive) in the assay on SN12C. Moreover, the GI50 with UACC-257, in the assay with OVCAR-8, in the assay with IGROV-1, in the assay on ACHN, with U-251 and in the assay on CAKI-1 was > 100 µM (inactive) in each case. Moreover, in the assay with NCI-H522, the GI50 is 57.4 µM (inactive).

For the molecule `ON/N=C/c1cc2c(cc1Br)OCO2`, the GI50 was > 386 µM (inactive) with SF-295; > 386 µM (inactive) in the assay with SK-MEL-5; > 386 µM (inactive) in the assay with LOX IMVI; > 386 µM (inactive) with NCI-H226; 383 µM (inactive) in the assay on MOLT-4; > 386 µM (inactive) in the assay with SF-539. The GI50 in the assay with SNB-19, in the assay with KM12, in the assay on SW-620, in the assay with RPMI-8226, with HCT-116 and with SN12C was > 386 µM (inactive) throughout. Also, the GI50 in the assay on UACC-257 was > 386 µM (inactive); in the assay on OVCAR-8, > 386 µM (inactive); with IGROV-1 it was > 386 µM (inactive); in the assay on ACHN it was > 386 µM (inactive); in the assay with U-251 it was 329 µM (inactive); in the assay with CAKI-1, > 386 µM (inactive). For the same molecule, in the assay on NCI-H522, the GI50 is 230 µM (inactive).

In the case of `COC(=O)c1c(C(=O)OC)c2ccccn2c1-c1cc(C)cc2c1C(=O)C=CC2=O`, the GI50 in the assay on SF-295 is 12.2 µM (inactive); in the assay with SK-MEL-5 it was 12.4 µM (inactive); in the assay with LOX IMVI, > 10 µM (inactive); in the assay with NCI-H226, 13.8 µM (inactive); in the assay with MOLT-4, 1.38 µM (inactive); in the assay on SF-539, 11 µM (inactive). In addition, the GI50 in the assay on SNB-19 is 13.7 µM (inactive); with KM12, > 10 µM (inactive); in the assay with SW-620 it was 2.89 µM (inactive); in the assay on HCT-15 it was 10.6 µM; with RPMI-8226 it was 4.11 µM (inactive); with HCT-116, 10.7 µM (inactive). Besides, the GI50 in the assay with SN12C was 12.7 µM (inactive); with UACC-257, 3.43 µM (inactive); in the assay on OVCAR-8, 6.3 µM (inactive); with IGROV-1 it was 12.8 µM (inactive); with ACHN, 12.6 µM (inactive); in the assay with CAKI-1 it was 5.08 µM (inactive). Also, the GI50 in the assay with NCI-H522 was > 10 µM (inactive).

Turning to `O=P1(c2ccccc2)c2ccccc2CCc2ccccc21`, the GI50 in the assay with SF-295 is 45.5 µM (inactive); with SK-MEL-5 it was 44.9 µM (inactive); in the assay on LOX IMVI it was > 100 µM (inactive); in the assay with NCI-H226, > 100 µM (inactive); in the assay with MOLT-4, 33.6 µM (inactive); with SF-539 it was > 100 µM (inactive). The GI50 in the assay on SNB-19 is > 100 µM (inactive); in the assay with KM12, 56.1 µM (inactive); in the assay on SW-620, > 100 µM (inactive); with HCT-15, 68.9 µM; in the assay with RPMI-8226, 50.6 µM (inactive); with HCT-116, 53 µM (inactive). In addition, the GI50 was 81.1 µM (inactive) in the assay with SN12C; > 100 µM (inactive) in the assay with UACC-257; > 100 µM (inactive) in the assay with OVCAR-8; > 100 µM (inactive) in the assay on IGROV-1; 34.2 µM (inactive) with CAKI-1; 37.1 µM (inactive) with NCI-H522.

`O=C(CN1CCOCC1)CC(O)(C(F)(F)F)C(F)(F)F`: the GI50 was 67 µM (inactive) in the assay with SF-295; 47.6 µM (inactive) with SK-MEL-5; 46 µM (inactive) in the assay on LOX IMVI; > 100 µM (inactive) in the assay with NCI-H226; 37.2 µM (inactive) in the assay on MOLT-4; > 100 µM (inactive) in the assay with SF-539. Further, the GI50 in the assay on SNB-19 was 65.9 µM (inactive); with KM12, 77.8 µM (inactive); with SW-620, 48.9 µM (inactive); in the assay on HCT-15, 55.5 µM; in the assay on RPMI-8226 it was 55.2 µM (inactive); in the assay on HCT-116, 44.9 µM (inactive). In addition, the GI50 was > 100 µM (inactive) in the assay on UACC-257; > 100 µM (inactive) with OVCAR-8; 71.8 µM (inactive) in the assay with IGROV-1; 92.5 µM (inactive) in the assay with ACHN; 51.4 µM (inactive) in the assay on U-251; 78.3 µM (inactive) in the assay with CAKI-1. Also, the GI50 in the assay on NCI-H522 was 42 µM (inactive).

For the molecule `CN(C(=O)C12C3C4C1C1C2C3C41C#N)C(C)(C)C` (stereo not given), the GI50 in the assay with SF-295, in the assay with SK-MEL-5, in the assay on LOX IMVI, with NCI-H226, with MOLT-4 and in the assay on SF-539 was > 100 µM (inactive) in each case. In addition, the GI50 with SNB-19, in the assay with KM12, in the assay with SW-620, with RPMI-8226, in the assay with HCT-116 and with SN12C was > 100 µM (inactive) in each case. For the same molecule, the GI50 in the assay on UACC-257, with OVCAR-8, in the assay on IGROV-1, in the assay on ACHN, with U-251 and in the assay with CAKI-1 was > 100 µM (inactive) throughout. Besides, the GI50 with NCI-H522 was > 100 µM (inactive).

For the molecule `CC[C@H](C)[C@@H]1OC(=O)CCNC(=O)[C@@H](C)NC(=O)C(C)(C)C(=O)[C@H](C)NC(=O)[C@H](Cc2ccc(OC)cc2)N(C)C(=O)[C@H](C(C)C)N(C)C(=O)CNC(=O)[C@H](CC(C)C)N(C)C(=O)CNC1=O` (cyclo(G[NMeL]G[NMeV][NMeY](Me)[X4][dA][βAla][Hmpa(2S,3S)])), the GI50 in the assay with SF-295 was 0.306 µM (active); with SK-MEL-5 it was 0.0879 µM (active); in the assay on LOX IMVI, 0.175 µM (active); with NCI-H226, 5.92 µM (inactive); in the assay with MOLT-4 it was 2.4 µM (inactive); with SF-539, 0.252 µM (active). The GI50 in the assay with SNB-19 was 0.111 µM (active); in the assay with SW-620, 0.0625 µM (active); with HCT-15, 1.63 µM; in the assay on RPMI-8226 it was 0.0726 µM (active); with HCT-116, 0.0352 µM (active); in the assay on SN12C, 0.367 µM (active). Also, the GI50 in the assay on UACC-257 was 0.218 µM (active); with OVCAR-8, 3.58 µM (inactive); in the assay with IGROV-1, 0.697 µM (active); in the assay on ACHN, 3.1 µM (inactive); with U-251, 0.0855 µM (active); with CAKI-1, 1.53 µM (inactive). Besides, the GI50 in the assay with NCI-H522 was 0.0295 µM (active).
